Biological target: α-glucosidase
Assay: α-glucosidase inhibition (assay details and enzyme source not described)
Format: biochemical

`C=C(C)C1CC23C(=O)C4(C/C=C(\C)CCC=C(C)C)CC(CC2C1(C)C)C(C)(C)C(C(=O)c1ccccc1)(C4=O)C3=O` (stereo not shown) [Cowabenzophenone A] showed an IC50 of 7.8 ± 0.5 µM.

Source: PMC7723023, “Antimicrobial, anti-cancer, anti-filarial and anti-inflammatory activities of Cowabenzophenone A extracted from the endophytic fungus Aspergillus terreus isolated from a mangrove plant Bruguiera gymnorrhyza” (Mycology, 2019)
